According to US20250327032A1, “AGENT FOR AVOIDING IMMUNE RESPONSE OF TRANSGENIC CELLS” (HYPERION DRUG DISCOVERY CO., LTD., priority 2021, published 2025):

Experiments:
[1] = tested on: human mesenchymal stem cells; assay: Introduction of TERT mRNA by lipofection, number of viable cells; type: cell-based; settings: JSH-23 1 μM, 10 pg/cell
Description: (§1) Human mesenchymal stem cells were seeded in a 6-well plate to be about 10,000 cells/cm^2. Human myoblasts were seeded in another 6-well plate to be about 20,000 cells/cm^2. As a culture solution, a basal medium for each cell supplemented with 1 μM of JSH-23 was used. As a control, a basal medium for each cell supplemented with 0.1% (v/v) DMSO instead of JSH-23 was used as a culture solution.
(§2) A lipofection solution was prepared by adding Lipofectamine RNAiMAX and TERT mRNA to OptiMEM. As the TERT mRNA, that containing uridine, or that containing pseudouridine instead of uridine was used. It was prepared so that the amount of mRNA was 10 pg/cell for human mesenchymal stem cells and 5 pg/cell for human myoblasts. The prepared lipofection solution was mixed well according to the manufacturer's recommended protocol and allowed to stand at room temperature for about 15 minutes.
(§3) Next, each lipofection solution was added to the plate seeded with human mesenchymal stem cells or human myoblasts, and cultured in a CO2 incubator at 37° C. for about 1 day (18 hours) (human mesenchymal stem cells) or for 2 days (42 hours) (human myoblasts). After culturing, all the culture solution comprising the lipofection solution was removed and replaced with a new culture solution having the same composition as before the addition of the lipofection solution.
(§4) After another 6 hours, the above lipofection solution was newly prepared, added again to the plate seeded with human mesenchymal stem cells or human myoblasts, and cultured in a CO2 incubator at 37° C. for about 1 day (18 hours) (mesenchymal stem cells) or about 2 days (42 hours) (human myoblasts). These steps were repeated so that the introduction of genes was performed a total of 4 times.
(§5) Twenty-four hours after the final introduction of genes, the cells were detached with a cell detachment solution, centrifuged at 600×g for 5 minutes using a centrifuge, to collect the cells. The collected cells were counted using a hemocytometer.

human myoblasts = assay: as above; type: cell-based; settings: JSH-23 1 μM, 5 pg/cell
Description: as §1, §2, §3, §4, §5

TNF-α = TNF-α expression level (qPCR) after introduction of GFP-tagged CAR-T plasmid; type: cell-based, human; settings: Jurkat E6.1; JSH-23 0.1 μM; compared to CAR-T plasmid introduced without JSH-23
Description: Human leukemia T cells (Jurkat E6.1) were seeded in a 6-well plate to be about 10,000 cells/cm^2. As a culture solution, RPMI1640 medium comprising 10% bovine serum was used. To this, 0.1 μM of JSH-23 was added, or for comparison, 0.1% (v/v) DMSO instead of JSH-23 was added and used.
A lipofection solution was prepared by adding Lipofectamine 2000 and GFP-tagged CAR-T plasmid to OptiMEM. The amount of plasmid was prepared to be 1 pg/cell. The prepared lipofection solution was mixed well according to the manufacturer's recommended protocol and allowed to stand at room temperature for about 15 minutes.
Next, the lipofection solution was added to the plate seeded with human leukemia T cells, and cultured in a CO2 incubator at 37° C. for about 1 day (18 hours). After culturing, all the culture solution comprising the lipofection solution was removed and replaced with a new culture solution having the same composition as before the addition of the lipofection solution. […]
cDNA was synthesized from the purified RNA using SuperScript™ III Reverse Transcriptase according to the manufacturer's protocol. qPCR was performed using the synthesized cDNA and PCR primers as well as PowerTrack™ SYBR Green Master Mix. The measured Ct value of TNF-α was normalized with the Ct value of β-actin, a housekeeping gene.

[2] = tested on: human mesenchymal stem cells; assay: Introduction of GFP viral vector (polybrene method), yield of GFP-positive cells; type: cell-based; settings: JSH-23 1 μM; GFP viral vector MOI 10, polybrene 5 μg/mL
Description: Human mesenchymal stem cells were seeded in a 6-well plate to be about 2,000 cells/cm^2. Human myoblasts were seeded in another 6-well plate to be about 2,000 cells/cm^2. As a culture solution, a basal medium for each cell supplemented with JSH-23 was used. JSH-23 was added at 1 μM to the culture solution used for human mesenchymal stem cells, and at 0.1 μM to the culture solution used for human myoblasts. As a control, a basal medium, i.e., αMEM (+10% serum) for human mesenchymal stem cells and MCDB131 (+10% serum) for human myoblasts, to which 0.1% (v/v) DMSO instead of JSH-23 was added was used as a culture solution.
A mixed solution was prepared by mixing GFP viral vector and a polybrene solution. The amount of GFP viral vector was prepared to be MOI of 10, and the amount of polybrene was prepared to be 5 μg/mL. […]
Four days after the addition of the virus-free culture solution, the cells were detached with a cell detachment solution and centrifuged at 600×g for 5 minutes using a centrifuge, to collect the cells. The collected cells were counted using a hemocytometer. Furthermore, the GFP-positive percentage of the collected cells was measured using a flow cytometer. The yield of the number of GFP-positive cells was calculated from the number of cells counted and the GFP-positive percentage.

IFN-α = IFN-α expression level (qPCR) after introduction of GFP-tagged CAR-T plasmid; type: cell-based, human; settings: Jurkat E6.1; JSH-23 0.1 μM; compared to CAR-T plasmid introduced without JSH-23
[3] = TERT mRNA containing pseudouridine instead of uridine

## Cc1ccc(NCCCc2ccccc2)c(N)c1 [JSH-23]
[1]; [3]
  yield (number of viable cells) compared to the control (control set to 1): ≥ 1.3 times
[1]; TERT mRNA containing uridine
  yield (number of viable cells) compared to the control (control set to 1): ≥ 1.5 times
Human myoblasts; [3]
  yield (number of viable cells) compared to the control (control set to 1): ≥ 5 times
Human myoblasts; TERT mRNA containing uridine
  yield (number of viable cells) compared to the control (control set to 1): ≥ 7 times
TNF-α
  increase in the expression level of TNF-α: reduced
[2]
  number of GFP-positive cells relative to control: increased
IFN-α
  increase in the expression level of IFN-α: reduced
